Results on 9 compounds are retold here after US20240024494A1, “SMALL-MOLECULE CONJUGATE AND USE THEREOF” (SHANGHAI MEWSGEN BIOTECHNOLOGY CO., LTD, priority 2020, published 2024).

Experiment [1] deals with MIA PACA-2 (human pancreatic cancer cells). The experiment can be described thus: Tumor cell proliferation inhibition test, CCK-8 method (Example 21). The class given is cell-based. As to the method:
(§1) A part of the compounds prepared in the examples of the present disclosure were subjected to a tumor cell proliferation inhibition test by using a CCK-8 method. Cell lines HCT116 (human colon cancer cells), MGC803 (human gastric cancer cells), and MIA PACA-2 (human pancreatic cancer cells) were purchased from Shanghai Meixuan Technology Co., Ltd. Samples (a part of the compounds prepared in the examples) were dissolved in DMSO (Merck), prepared into a concentration of 10 mM, and finally triply diluted in DMEM or McCoy's 5A 1640 medium to 8 concentration gradients. A cell culture solution was collected when a cell culture met a test requirement, 10 μL of the cell culture solution was uniformly coated on a cell counting plate, cells were counted for 3 times under a microscope, and a cell density was calculated by taking an average value; and a 96-well plate (Corning, #3599) was taken, 200 μL of the cell culture solution was added into each well for cell inoculation at a cell concentration of 6×10^3 cells per well, and the inoculated 96-well plate was incubated in a cell incubator containing 5% CO2 at 37° C. for 24 h. An old culture medium was removed by suction, 200 μL of the triply diluted sample DMEM or McCoy's 5A 1640 medium at an initial concentration of 10 μmol/L was added to each well, the DMSO content was controlled to be 1%, three duplicate wells were set, PBS was used as a blank control, and the plate was incubated in the incubator for 72 h. The original DMEM or McCoy's 5A 1640 medium in the 96-well plate and a PBS buffer in a final row were sucked out, a prepared CCK-8 solution (90% DMEM or McCoy's 5A 1640 medium+10% CCK-8) was added, the mixture was incubated in an incubator, and an absorbance was read by using a Biotek microplate reader. Cell growth inhibition rate IC %=(blank control well OD value−administration well OD value)/blank control well OD value×100%.
For orientation: Formazan colour is commonly taken as a measure of viable cells.

Experiment [2] has as its system MGC803 (human gastric cancer cells). Described as above. The class given is cell-based. How it is done:
as §1

For experiment [3], the system named is HCT116 (human colon cancer cells). The description is as above. The class given is cell-based. How it is done:
as §1

The subject of experiment [4] is tumor cell strains (colon cancer, pancreatic cancer, esophageal squamous carcinoma, gastric cancer, glioma). The experiment can be described thus: Summary of in-vitro proliferation inhibition on tumor cell strains (Examples 19-21). The class given is cell-based, human. As to the method:
as §1, with “A cell line” for “Cell lines”, “carcinoma cells)” for “cancer cells), MGC803 (human gastric cancer cells),”, “SW1990” for “MIA PACA-2”, “carcinoma” for “cancer”
In-vitro activity test: 100 μL of a cell suspension at a concentration of 4-5×10^4/mL was added to each well of a 96-well plate, and placed in a 5% CO2 incubator at 37° C. After 24 h, a sample solution was added at 10 μL/well, double duplicate wells were set, and a reaction was performed at 37° C. with 5% CO2 for 72 h. 20 μL of 5 mg/ml of an MTT solution was added into each well and reacted for 4 h, a dissolving solution was added at 100 μL/well, the mixture was placed in an incubator, and after dissolution, an OD value at 570 nm was measured with a full-wavelength multifunctional microplate reader. An inhibition rate (IR) and a median inhibitory concentration (IC50) were calculated by using an Excel software.
A part of the compounds prepared in the examples of the present disclosure were subjected to a tumor cell proliferation inhibition test by using a CCK-8 method. Cell lines HCT116 (human colon cancer cells), MGC803 (human gastric cancer cells), and MIA PACA-2 (human pancreatic cancer cells) were purchased from Shanghai Meixuan Technology Co., Ltd. Samples (a part of the compounds prepared in the examples) were dissolved in DMSO (Merck), prepared into a concentration of 10 mM, and finally triply diluted in DMEM or McCoy's 5A 1640 medium to 8 concentration gradients. A cell culture solution was collected when a cell culture met a test requirement, 10 μL of the cell culture solution was uniformly coated on a cell counting plate, cells were counted for 3 times under a microscope, and a cell density was calculated by taking an average value; and a 96-well plate (Corning, #3599) was taken, 200 μL of the cell culture solution was added into each well for cell inoculation at a cell concentration of 6×10^3 cells per well, and the inoculated 96-well plate was incubated in a cell incubator containing 5% CO2 at 37° C. for 24 h. […]

Setting [5] is: CCK-8, 72 h, Table 3, read-out: IC50 MIA PACA-2.
Setting [6] is: CCK-8, 72 h, Table 3, read-out: IC50 MGC803.
[7] abbreviates: CCK-8, 72 h, Table 3, read-out: IC50 HCT116.

Read-outs that look alike come from different tables or passages of the source.

The term IC50 denotes the concentration needed to halve the response being measured. For the compound `COc1cc(C(=O)NCCOCCOCCOCCOCCOCCOCCC(=O)N[C@@H](C(=O)N[C@@H](CCCNC(N)=O)C(=O)Nc2ccc(COC(=O)N3CCN(C(=O)O[C@H]4CC[C@@]5(C)[C@H](CC[C@@H]6[C@@H]5[C@H](O)C(=O)[C@]5(C)C(c7ccc(=O)oc7)CC[C@]65O)C4)CC3)cc2)C(C)C)ccc1NC(=O)[C@@H]1N[C@@H](CC(C)(C)C)[C@](C#N)(c2ccc(Cl)cc2F)[C@H]1c1cccc(Cl)c1F` (some centres unmarked) [Compound I-8], the IC50 in experiment [1] (setting [5]) was found to be 87 nM; in experiment [2] (setting [6]) it was 12 nM; in experiment [3] (setting [7]), 12 nM. Also, the “Proliferation inhibition activities IC50 on most tumor cell strains (in words)” value (from here on “Proliferation inhibition activities IC50”) in experiment [4] was “between several to hundreds of nanomoles”.
`COc1cc(C(=O)NCCOCCOCCOCCOCCC(=O)N[C@@H](CCSC)C(=O)N[C@@H](CCCNC(N)=O)C(=O)Nc2ccc(COC(=O)N3CCN(C(=O)O[C@H]4CC[C@@]5(C)[C@H](CC[C@@H]6[C@@H]5[C@H](O)C(=O)[C@]5(C)[C@@H](c7ccc(=O)oc7)CC[C@]65O)C4)CC3)cc2)ccc1NC(=O)[C@@H]1N[C@@H](CC(C)(C)C)[C@](C#N)(c2ccc(Cl)cc2F)[C@H]1c1cccc(Cl)c1F` [Compound I-13]: the IC50 in experiment [1] (setting [5]) amounted to 24 nM; in experiment [2] (setting [6]) it was 14 nM; in experiment [3] (setting [7]) it was 14 nM. Further, in experiment [4], the “Proliferation inhibition activities IC50” value was “between several to hundreds of nanomoles”.
Take `COc1cc(C(=O)NCCOCCOCCOCCOCCC(=O)N[C@H](C(=O)N[C@@H](C)C(=O)Nc2ccc(COC(=O)N3CCC(NC(=O)O[C@H]4CC[C@]5(C)C6CC[C@]7(C)[C@@H](c8ccc(=O)oc8)CC[C@]7(O)C6CC[C@@H]5C4)CC3)cc2)C(C)C)ccc1NC(=O)[C@@H]1N[C@@H](CC(C)(C)C)[C@](C#N)(c2ccc(Cl)cc2F)[C@H]1c1cccc(Cl)c1F` (some centres unmarked) [Compound I-11]: the IC50 stood at 68 nM in experiment [1] (setting [5]), 10 nM in experiment [2] (setting [6]) and 27 nM in experiment [3] (setting [7]). The “Proliferation inhibition activities IC50” value in experiment [4] is reported as “between several to hundreds of nanomoles”.
For the compound `COc1cc(C(=O)NCCOCCOCCOCCOCCC(=O)N[C@@H](CCSC)C(=O)N[C@@H](CCCNC(N)=O)C(=O)Nc2ccc(COC(=O)O[C@@H](C(=O)O[C@H]3C[C@@]4(O)[C@@H](OC(=O)c5ccccc5)C5[C@](C)(C(=O)[C@H](OC(C)=O)C(=C3C)C4(C)C)[C@@H](O)C[C@H]3OC[C@@]53OC(C)=O)[C@@H](NC(=O)c3ccccc3)c3ccccc3)cc2)ccc1NC(=O)[C@@H]1N[C@@H](CC(C)(C)C)[C@](C#N)(c2ccc(Cl)cc2F)[C@H]1c1cccc(Cl)c1F` (some centres unmarked) [Compound I-12], the IC50 in experiment [1] (72 h) is 542 nM; in experiment [2] (72 h), 626 nM; in experiment [3] (72 h), 5260 nM.
Turning to `COc1cc(C(=O)NCCOCCOCCOCCOCCC(=O)N[C@H](C(=O)N[C@@H](C)C(=O)Nc2ccc(COC(=O)N3CCN(C(=O)O[C@H]4CC[C@@]5(C)[C@H](CC[C@@H]6[C@@H]5[C@H](O)C(=O)[C@]5(C)[C@@H](c7ccc(=O)oc7)CC[C@]65O)C4)CC3)cc2)C(C)C)ccc1NC(=O)[C@@H]1N[C@@H](CC(C)(C)C)[C@](C#N)(c2ccc(Cl)cc2F)[C@H]1c1cccc(Cl)c1F` [Compound I-10], the IC50 in experiment [1] (setting [5]) worked out at 443 nM; in experiment [2] (setting [6]), 307 nM; in experiment [3] (setting [7]), 395 nM.
With `COc1cc(C(=O)NCCOCCOCCOCCOCCC(=O)N[C@@H](CCSC)C(=O)N[C@@H](CCCNC(N)=O)C(=O)Nc2ccc(COC(=O)N3CCC(NC(=O)O[C@H]4CC[C@]5(C)C6CC[C@]7(C)[C@@H](c8ccc(=O)oc8)CC[C@]7(O)C6CC[C@@H]5C4)CC3)cc2)ccc1NC(=O)[C@@H]1N[C@@H](CC(C)(C)C)[C@](C#N)(c2ccc(Cl)cc2F)[C@H]1c1cccc(Cl)c1F` (some centres unmarked) [Compound I-14], the half-maximal inhibitory concentration (IC50) in experiment [1] (setting [5]) was 670 nM; in experiment [2] (setting [6]), 249 nM; in experiment [3] (setting [7]), 483 nM. The “Proliferation inhibition activities IC50” value in experiment [4] is “between several to hundreds of nanomoles”.
In the same order, the values of `COc1cc(C(=O)NCCOCCOCCOCCC(=O)N[C@H](C(=O)N[C@@H](CCCNC(N)=O)C(=O)Nc2ccc(COC(=O)N3CCN(C(=O)O[C@H]4CC[C@@]5(C)[C@H](CC[C@@H]6[C@@H]5[C@H](O)C(=O)[C@]5(C)C(c7ccc(=O)oc7)CC[C@]65O)C4)CC3)cc2)C(C)C)ccc1NC(=O)[C@@H]1N[C@@H](CC(C)(C)C)[C@](C#N)(c2ccc(Cl)cc2F)[C@H]1c1cccc(Cl)c1F` (some centres unmarked) [Compound I-2] are 212 nM, 54 nM, 26 nM and “between several to hundreds of nanomoles”.
Consider `COc1cc(C(=O)NCCOCCOCCOCCC(=O)N[C@H](C(=O)N[C@@H](CCCNC(N)=O)C(=O)Nc2ccc(COC(=O)N3CCC(NC(=O)O[C@H]4CC[C@]5(C)C6CC[C@]7(C)[C@@H](c8ccc(=O)oc8)CC[C@]7(O)C6CC[C@@H]5C4)CC3)cc2)C(C)C)ccc1NC(=O)[C@@H]1N[C@@H](CC(C)(C)C)[C@](C#N)(c2ccc(Cl)cc2F)[C@H]1c1cccc(Cl)c1F` (some centres unmarked) [Compound I-5], for which the 50% inhibitory concentration (IC50) is 442 nM in experiment [1] (setting [5]), 116 nM in experiment [2] (setting [6]) and 236 nM in experiment [3] (setting [7]).
Regarding `COc1cc(C(=O)NCCOCCOCCOCCOCCOCCOCCC(=O)N[C@@H](C(=O)N[C@@H](CCCNC(N)=O)C(=O)Nc2ccc(COC(=O)N3CCC(NC(=O)O[C@H]4CC[C@]5(C)C6CC[C@]7(C)C(c8ccc(=O)oc8)CC[C@]7(O)C6CC[C@@H]5C4)CC3)cc2)C(C)C)ccc1NC(=O)[C@@H]1N[C@@H](CC(C)(C)C)[C@](C#N)(c2ccc(Cl)cc2F)[C@H]1c1cccc(Cl)c1F` (some centres unmarked) [Compound I-7], the IC50 in experiment [1] (setting [5]) was determined as 3530 nM; in experiment [2] (setting [6]) it was 292 nM; in experiment [3] (setting [7]) it was 1290 nM.
